# Reference: paper PMC5799093, “Proceedings of Réanimation 2018, the French Intensive Care Society International Congress” (Annals of Intensive Care, 2018)
# Read-outs that look alike come from different tables or passages of the source.
# How the values were obtained:
# Acinetobacter baumannii [1] = assay type: cell-based; details: blood culture isolates 2012–2016
# Method: (§1) Patients and methods: From January 2012 to December 2016, a total of 2,182 non repetitive strains were isolated from blood cultures. Incubation of blood culture vials and the detection of bacterial growth were performed by the BACTEC system. All Isolated organisms were identified on the basis of standard microbiological techniques. Antibiotic susceptibility testing was carried out by the agar disk diffusion method, and susceptibility results were interpreted using clinical breakpoints according to CA-SFM 2013 and 2015 guidelines. Data were analyzed using the SIR-system. Minimum inhibitory concentrations of colistin, imipenem and vancomycin were determined using the Etest® method (bioMérieux).
# Pseudomonas [2] = test: Resistance of VAP isolates: pseudomonas (P-224); assay type: cell-based; details: 2014-2015
# From the text: (§2) Patients and methods: Retrospective study spread over 2 years from January 2014 to December 2015 carried out in the resuscitation unit of the medical and surgical emergency department of CHUOran. Data utilization with Whonet software. The criteria of vap retained are those of CTINILS (May 2007).
# [3] = tested on: Extended spectrum betalactamase producing Enterobacteriaceae; test: Antibiotic resistance of ESBL producing Enterobacteriaceae (P-147); assay type: cell-based; details: isolates 2015 and 2016
# Pseudomonas [4] = details: January 2010 - June 2014
# Acinetobacter Baumanii = test: Resistance of nosocomial infection isolates: Acinetobacter Baumanii (P-222); assay type: cell-based; details: n = 39 isolates, 2016
# From the text: (§3) Patients and methods: This was a retrospective study conducted within a 22-bed medical ICU of a Tunisian teaching hospital (301 beds) carried from January 1st to December 31, 2016. We recorded demographic patients’ characteristics which ICU’s stay was complicated with at least one NI. Then we described pathogens and microbiological specificities of NI.
# [5] = tested on: carbapenemase-producing Enterobacteriaceae; test: Antibiotic susceptibility of Enterobacteriaceae with decreased susceptibility to carbapenems; assay type: cell-based; details: 39 selected bacteria
# acintobacter baumanii = test: Resistance of VAP isolates: baumanii (P-224); assay type: cell-based; details: 2014-2015
# From the text: as §2
# [6] = tested on: Pseudomonas aeruginosa (PA); test: Antibiotic resistance of Pseudomonas aeruginosa before/after antibiotic stewardship (P-214); assay type: cell-based
# Pseudomonas aeruginosa [7] = test: Disk diffusion susceptibility of P. aeruginosa isolated from burned patients (P-48); assay type: cell-based; details: 485 strains from burned patients 2012-2015, disk diffusion, FSM breakpoints
# Acinetobacter baumannii [8] = details: January 2010 - June 2014
# [9] = Beta-lactam plasma concentrations in children with severe sepsis or septic shock (HPLC); details: current standard dosing
# Pseudomonas aeruginosa [10] = tested on: Pseudomonas aeruginosa
# Escherichia-coli = test: Resistance in nosocomial urinary tract infection: Escherichia-coli (P-219); details: January 2010 - June 2014
# Staphylococcus aureus [11] = assay type: cell-based; details: blood culture isolates 2012–2016
# Method: as §1
# Staphylococcus aureus [12] = test: Resistance in nosocomial urinary tract infection: Staphylococcus aureus (P-219); details: January 2010 - June 2014
# [13] = tested on: coagulase negative Staphylococcus; test: Resistance of nosocomial infection isolates: coagulase negative Staphylococcus (P-222); assay type: cell-based; details: n = 12 isolates, 2016
# From the text: as §3
SMILES,resistance rate (Acinetobacter baumannii [1]),resistant (Pseudomonas [2]),rate of resistance [3],resistant (Pseudomonas [4]),resistance (Acinetobacter Baumanii),strains with MIC > 8 mg l [5],resistant (acintobacter baumanii),antibiotic resistance of PA ([6]; period 2007–2010 (P1)),"antibiotic resistance of PA ([6]; period 2011–2014 (P2), after antibiotic stewardship, p < 0.01)",strains resistant (Pseudomonas aeruginosa [7]),resistant (Acinetobacter baumannii [8]),patients with insufficient plasma concentration [9],resistance rate (Klebsiella pneumoniae),resistance rate (Pseudomonas aeruginosa [10]),resistant (Escherichia-coli),resistance rate (Staphylococcus aureus [11]),resistant (Staphylococcus aureus [12]),resistant [13]
C[C@@H](O)[C@H]1C(=O)N2C(C(=O)O)=C(SCCN=CN)C[C@H]12 [imipenem],94%,18.4%,2.17%,64%,100%,30%,55%,38%,18%,56%,87%,0%,15%,72%,8%,,,
COc1cccc(OC)c1C(=O)N[C@@H]1C(=O)N2[C@@H]1SC(C)(C)[C@@H]2C(=O)O [methicillin],,,,,,,,,,,,,,,,70%,25%,75%
